Values after ≈ are worked out from the molar mass of the structure shown. Values joined by “and” are separate entries in the source; they are usually repeats but may differ in a detail not shown here. Equal values may be shown once.
Tests used:
Leishmania mexicana = assay: Parasitology, Leishmania mexicana; type: cell-based; conditions: read-out: Parasitology IC50 or 80 Leishmania mexicana
Candida albicans = assay: Parasitology, Candida albicans; type: cell-based; conditions: read-out: Parasitology IC50 or 80 Candida albicans
KB cells = assay: Cytotoxicity on KB cells; type: cell-based
[1] = tested on: KB, Caco, Huh7 and fibroblast cells; assay: in vitro cytotoxicity test on KB, Caco, Huh7 and fibroblast cells; type: cell-based
Text: Preferably, the cancer concerned by the invention is a carcinoma, for instance a carcinoma of the ear, nose or throat, of the lungs, of the uterus, of the digestive system (oesophagus, colon, liver), of the skin, of the breasts, of the prostate, of the ovaries, etc.

tonB protein = tonB protein (Escherichia coli, UniProt P02929); assay: Effect on tonB protein (iron transfer for bacterial growth)
Chain of tonB protein (P02929 whole entry): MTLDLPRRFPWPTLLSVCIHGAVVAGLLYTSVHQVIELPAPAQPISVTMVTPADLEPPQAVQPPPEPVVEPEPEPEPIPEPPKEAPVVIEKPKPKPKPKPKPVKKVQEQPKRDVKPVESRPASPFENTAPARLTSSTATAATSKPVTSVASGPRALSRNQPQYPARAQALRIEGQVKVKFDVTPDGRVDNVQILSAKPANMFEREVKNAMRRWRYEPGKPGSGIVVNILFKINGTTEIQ

E. coli = assay: Inhibition of the growth of E. coli; type: cell-based
Cytotoxicity on KB cells = type: cell-based; conditions: human, KB cells
[2] = second value (cell beside the first)

Row | Structure (SMILES) | IC50 (Leishmania mexicana) | IC50 (Candida albicans) | KB cells Cytotoxicity % inhibition à [10^−5] (KB cells; first value) | KB cells Cytotoxicity % inhibition à [10^−5] (KB cells; [2]) | cytotoxic activity in a cancerous cell model [1] | effect on the tonB protein (tonB protein) | inhibition of the growth of E. coli (E. coli) | IC50 (Cytotoxicity on KB cells) | IC50 (KB cells; Homo sapiens, KB, read-out: IC50 on KB cancerous cells)
1 | Cc1cccc(-c2ccc(-c3ccc(-c4cccc(C)n4)nn3)nn2)n1 [Compound 2, 6,6′-bis(6-methylpyridin-2-yl)-3,3′-bipyridazine] | 2.2 µM and 0.91 µg/mL | 62 µM and 25.9 µg/mL | 23% | 12% |  |  |  |  | 
2 | S=c1ccc(-c2ccccn2)n[nH]1 [Compound 10, 6-(pyridin-2-yl)-2H-pyridazin-3-thione] |  |  | 84% | 74% | very high levels of cytotoxic activity |  |  |  | 
3 | c1ccc(-c2ccc(-c3ccc(-c4ccccn4)nn3)nn2)nc1 [Compound 19, 6,6′-bis(pyridin-2-yl)-3,3′-bipyridazine] |  |  | 16% |  |  |  |  |  | 
4 | C=C(OCC)c1ccc(-c2ccc(C(=C)OCC)nn2)nn1 [Compound 24, 6,6′-di-(1-ethoxyvinyl)-3,3′-bipyridazine] |  |  | 96% | 95% | very high levels of cytotoxic activity | affects the tonB protein | able to inhibit the growth of E. coli | 1.23 µM and 0.37 µg/mL | 0.3 µg/mL (≈ 1.01 µM)
5 | Cc1cccc(-c2ccc(-c3ccccn3)nn2)n1 [Compound 44, 3-(6-methylpyridin-2-yl)-6-(pyridin-2-yl)pyridazine] | < 1 µM and < 0.25 µg/mL | 600 nM and 0.15 µg/mL | 11% | 21% | very high levels of cytotoxic activity |  |  |  | 
6 | O=C(O)c1cccc(-c2ccc(-c3ccccn3)nn2)n1 [Compound 45, 3-(2-carboxypyridin-6-yl)-6-(pyridin-2-yl)-pyridazine] | 14 µM and 3.9 µg/mL | > 100 µM | 9% | 3% |  |  |  |  | 
7 | O=C(O)c1cccc(-c2ccc(-c3cccc(C(=O)O)n3)nn2)n1 [Compound 48, 3,6-bis(2-carboxypyridin-6-yl)-pyridazine] | 3 µM and 0.96 µg/mL | > 100 µM and ≥ 32.2 µg/mL | 21% |  |  |  |  |  | 
8 | CCCCc1cc(-c2ccccn2)[nH]c1-c1ccccn1 [Compound 68] |  |  | 43% |  |  |  |  |  | 
9 | c1ccc(-c2ccc(-c3ccccn3)nn2)nc1 [Compound 80, 3,6-bispyridin-2-ylpyridazine] |  |  |  |  | very high levels of cytotoxic activity |  |  |  | 
